Source: patent US20210186972A1, “FORMULATIONS AND METHODS FOR THE PREVENTION AND TREATMENT OF TUMOR METASTASIS AND TUMORIGENESIS” (THE UNITED STATES OF AMERICA, AS REPRESENTED BY THE …, priority 2018, published 2021)

Tests used:
[1] = tested on: patient-derived breast cancer xenotransplantation model (PDX); experiment: Patient-derived breast cancer xenotransplantation model (PDX); assay type: in vivo; conditions: 25 mg/kg IP, 5-day on and 2-day off, 4 weeks
Procedure: Metarrestin was tested in PC3M xenograft mice to determine whether metarrestin's anti-metastasis activity (observed in the NSG PANC1 mice and in vitro pan-cancer PNC suppression) translates into anti-metastasis activity in additional cancer models. Two weeks after subcutaneous implantation of PC3M cells, mice were started on 5 mg/kg or 25 mg/kg metarrestin or vehicle by daily IP injection for 4 additional weeks. Tumor progression was tracked by both in vivo imaging systems (“IVIS”) spectroscopy and tumor volume. Metastasis to the lungs was evaluated ex vivo through IVIS spectroscopy and by histopathology at the experimental endpoint. […] To evaluate the effect of metarrestin on a malignant xenograft considered closest to in vivo conditions, a patient-derived breast cancer xenotransplantation model (PDX) was used. […] Tumor size and total body weight were measured twice a week, and tumor weight was measured at experimental end-point.
Breast cancer model: The model derived from 0.2 liter of pleural effusion from a breast cancer patient (model #373342). These cancer cells had metastasized to the lung pleura from the initial tumor detected in the breast. […] Tumor size and total body weight were measured twice a week.

[2] = tested on: normal human fibroblast GM02153 cell line; experiment: UBF distribution (nucleolar capping) in normal fibroblasts; assay type: cell-based
Procedure: The nucleolar disruption was reversible within 48 hours upon withdrawal of metarrestin (FIG. 47). Similar disruptions were observed among other treated cell lines, including PANC1 and PC3M cells (FIG. 48), primary tumor, and liver metastatic tissues in the PANC1 xenograft model (FIG. 21, right panels). […] The segregation of the nucleolar compartments observed by EM is believed to correspond to the nucleolar capping structures detected by immunofluorescence of nucleolar proteins (FIGS. 21A-21C, 23, and 50). The coupling of nucleolar segregation with PNC loss was confirmed across several cell lines by immunolabeling with antibodies against the nucleolar Pol I transcription initiation factors, UBF (upstream binding transcription factor) (FIGS. 23 and 50), or Pol I polymerase, RPA194 (FIG. 51). Factors involved in ribosome maturation, such as fibrillarin or NOPP140 (FIGS. 51 and 52) were similarly reorganized. In contrast, UBF distribution was not changed when the normal human fibroblast GM02153 cell line was treated with metarrestin at the same concentration (FIG. 53).

[3] = tested on: PC3M-GFP-PTB cells; experiment: Cytotoxicity measured by cellular ATP (CELLTITER GLO); assay type: cell-based, human
Excerpt: FIG. 1 is a graph showing the concentration-response curve against PNC prevalence in PC3M (a metastatic prostate cancer cell line)-GFP (green fluorescent protein)-PTB (polypyrimidine tract-binding protein) cells (squares, PC3M, has a PNC prevalence of 75-85% in the absence of treatment) and cytotoxicity as measured by cellular ATP (CELLTITER GLO™) (circles). Representative PTB-GFP images for cells at the indicated concentrations (arrowheads indicate PNCs) (scale bar=5 μm) are shown in the three panels above the graph. The relative signal (%) is along the y-axis and Metarrestin [log M] is along the x-axis.

[4] = tested on: PC3M cells overexpressing eEF1A2; experiment: PNC disassembly in eEF1A2-overexpressing cells; assay type: cell-based; conditions: vs control vector
Excerpt: FIG. 39 is a graph showing that overexpression of eEF1A2 in PC3M cells increased the IC50 of metarrestin for PNC disassembly. PNC prevalence (%) is on the y-axis and the log [M] metarrestin is on the […]. eEF1A2 is shown by circles and the control vector is shown by squares.
eEF1As are multi-functional proteins, implicated in translation elongation, actin bundling, nuclear transport, and tRNA export. To evaluate whether eEF1A mediates the effect of metarrestin on cancer cells, eEF1A was either overexpressed or reduced through siRNA silencing. […] Thus, eEF1A2 enhances PNC structures, but is alone not sufficient to induce significant formation of PNCs in PNC-negative cells. To evaluate the functional link between the phenotype of metarrestin-induced PNC disassembly and eEF1A2, PNC disassembly in wild type and eEF1A2-overexpressing cancer cells was analyzed. Cells with and without over expression of eEF1A2-HA (48 hours after transfection with an efficiency at around 70%, FIGS. 61 and 64) were treated with metarrestin at 10 concentrations, and PNC prevalence was evaluated at 63× magnification. […] To evaluate whether eEF1A2 indeed regulates the metastatic phenotype, PANC1 cells with (PANC1 eEF1A2 O.E.) or without (PANC1 control) overexpression of eEF1A2 were orthotopically injected into NSG mice. Six weeks after implantation, organs were subjected to histopathological evaluation.

Q: With `N=c1c2c(-c3ccccc3)c(-c3ccccc3)n(Cc3ccccc3)c2ncn1[C@H]1CC[C@H](O)CC1` [metarrestin] as the compound, how does the PDX growth [1] read?
A: Its PDX growth is “effectively inhibited the PDX growth”.

Q: What about the “Tolerability (body weight and behavior)” value [1] of the same compound?
A: Its value is “well-tolerated”.

Q: And the UBF distribution ([2]; 1 μM)?
A: The UBF distribution was “not changed”.

Q: What about the UBF capping ([2]; 5 μM) of the same compound?
A: Its UBF capping is “did not become completely capped”.

Q: What about the “Acute cytotoxicity (cellular ATP)” value [3] of the same compound?
A: The value was “without acute cytotoxicity”.

Q: What about the “IC50 for PNC disassembly with increased expression of eEF1A2” value [4] of the same compound?
A: Its value is “increased the inhibitory concentration 50 (IC50)”.
